The values that follow come from patent US9801373B2, “Compounds for alleviating phosphate starvation symptoms in plants” (Commissariat a l'Energie Atomique et aux Energies …, priority 2012, dated 2017).

For this series, the system named is PHT1;4 expression. Nature of the series: Chemical genetics screen, GUS staining of pht1;4-1 reporter line. In kind it is in vivo, Arabidopsis thaliana. As to conditions: 25 μM, 5 days on −Pi. The text has this:
A “chemical genetics” approach has been carried out to isolate compounds that inhibit the phosphate (Pi) response in Arabidopsis thaliana. Compounds were screened for their ability to inhibit the expression of a phosphate starvation marker, namely the high affinity Pi transporter PHT1,4 gene. For the screening, the A. thaliana pht1;4-1 line (ecotype Wassilewskija) was chosen (Misson et al., 2004). It contains a T-DNA construct inserted into Pht1;4 gene creating a transcriptional fusion with a GUS reporter gene. For phenotypic analyses, A. thaliana Columbia and various lines derived from this ecotype were used. They are either transgenic lines expressing reporter gene as cycB1::GUS (Colón Carmona et al., 1999), MGD3::LUC, PHT1;4::LUC, At1g73010::LUC or various mutants affecting root response to low Pi such as: pdr2 (Ticconi et al., 2004), lpr1, lpr2 (Svistoonoff et al., 2007), lpi1, lpi2 and lpi3 (Sanchez-Calderon et al., 2006).
For the screening, the LATCA collection of 3600 biologically active compounds (Zhao et al., 2007) was used at a final concentration of 25 μM in 1% DMSO. Four to five Arabidopsis seeds of pht1;4-1 (Misson et al., 2004) reporter line were sown in 96-well plates containing 100 μL liquid MS/10 medium with 500 μM of Pi at pH 5.7. After 2 days at 4° C., plants were grown for five days in a culture chamber under a 16 h light/8 h dark regime (24/21° C., 150 μE m^−2s^−1). Medium was then replaced by MS/10 with only 5 μM Pi and the tested compounds were added to the 96-well plates. […] Five days later, plantlets were analysed by GUS staining to assay the activity of the reporter gene inserted in pht1;4 gene. […] Then, plates were analysed using a MZ16 stereomicroscope (Leica microsystems, Germany).
The GUS activity was detected as previously described by Jefferson et al. (1987), using a GUS staining solution containing 50 mM sodium phosphate buffer pH 7.0; 0.01% Triton X-100, 1 mM K3Fe(CN)6, 1 mM K4Fe(CN)6, 1 mg/ml 5-bromo-4-chloro-3-indolyl B-D-glucuronide (X-Gluc). […]

`O=c1c(Sc2ccc(Cl)cc2)c(Sc2ccc(Cl)cc2)c1=O` [PTN1]: the “toxicity as cause of reduced reporter gene expression” value is recorded as “not explained by toxicity”.
